# In ChEMBL document CHEMBL1201862, “PubChem BioAssay data set” (2004):
# The source made the active and inactive calls.
# Legend:
# [1] = molecular target: E3 ubiquitin-protein ligase Mdm2 (Homo sapiens, UniProt Q00987); experiment: enhancers of MDM2-luciferase reporter signal, concentration-effect titration, project on inhibitors of MDM2 ubiquitin ligase, cellular assay, luminescent readout, 384-well plate format (AID 1394); type: functional;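 note: MDM2 E3 inhibitors raise luminescence so EC50 is for signal enhancement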
# [2] = P. falciparum late gametocyte killing, dose response, luminescence (AID 1117278); type: functional, cell-based;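 note: gametocytes exposed to compound for 24 hours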
# [3] = Jurkat T cell cytotoxicity, dose response, cytotoxicity control for P. falciparum gametocyte viability project, luminescence (AID 1117277); type: functional, cell-based;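 note: potency reflects loss of cellular ATP meaning fewer viable cells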
# [4] = M. tuberculosis growth inhibition, HTS (AID 449762); type: functional
# [5] = molecular target: Inward rectifier potassium channel 2 (Mus musculus, UniProt P35561); experiment: Manual electrophysiological patch clamp assay for SAR compounds that inhibit/block inward-rectifying potassium ion channel Kir2.1. [Related pubchem assays: 1843 (Summary assay for Kir2.1 inhibitor assays.), 1672 (Primary HTS of 305616 compounds where 2592 were identified as active.)]; type: functional
# [6] = molecular target: T1, Low molecular weight phosphotyrosine protein phosphatase (Homo sapiens, UniProt P24666); experiment: LMPTP phosphatase inhibitors, dose response, biochemical, OMFP substrate, fluorescence intensity, set 2 (AID 743307); type: functional
# T1 sequence (P24666 whole entry): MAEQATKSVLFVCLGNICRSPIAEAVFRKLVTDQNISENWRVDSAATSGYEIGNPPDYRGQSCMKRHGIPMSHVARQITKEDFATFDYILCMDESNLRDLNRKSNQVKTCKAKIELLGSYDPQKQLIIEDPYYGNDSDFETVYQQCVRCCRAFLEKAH
# [7] = molecular target: T1, Low molecular weight phosphotyrosine protein phosphatase; experiment: LMPTP phosphatase inhibitors, colorimetric pNPP readout, dose response, orthogonal assay, biochemical, absorbance, pNPP substrate, LMPTP-A isoform, set 2 (AID 743308); type: functional
# Oxytocin receptor = Oxytocin receptor (Homo sapiens, UniProt P30559); experiment: Fluorescence-based cell-based high throughput dose response assay for potentiators of Oxytocin Receptor (OXTR). [Related pubchem assays: 434985 (Confirmation screen (OXTR potentiators in triplicate)), 2481 (Summary (OXTR potentiators)), 2445 (Primary screen (OXTR potentiators in singlicate))]; type: functional
# Vero = experiment: cytotoxicity of synthesized analogs in Vero cells, SAR follow-up, cytotoxicity control for West Nile virus antiviral project, cell-based, set II (AID 2402); type: functional; details: Chlorocebus sabaeus
# [8] = molecular target: Sphingosine 1-phosphate receptor 2 (Homo sapiens, UniProt O95136); experiment: Dose Response Cell Based Assay for Agonists of the S1P2 Receptor of Purchased Analogues. [Related pubchem assays: 729, 843, 854, 736 ]; type: functional
# [9] = molecular target: Solute carrier family 12 member 2/member 5 (Homo sapiens, UniProt P55011+Q9H2X9); experiment: KCC2 and NKCC1 inhibition by rubidium flux, cell-based, NKCC1 counter-screen (AID 1734); type: functional, HEK293
# [10] = molecular target: Aryl hydrocarbon receptor (Homo sapiens, UniProt P35869); experiment: Luminescence-based cell-based high throughput dose response assay for activators of the Aryl Hydrocarbon Receptor (AHR). [Related pubchem assays: 2796 (Primary screen (AHR activators in singlicate)), 2845 (Confirmation screen (AHR activators in triplicate)), 434939 (Counterscreen (PXR activators in triplicate)), 2804 (Summary (AHR activators))]; type: ADME
# [11] = Luminescence Cell-Based Dose Retest to Confirm Inhibitors of Cancer Stem Cells. [Related pubchem assays (depositor defined):AID2717, AID2721]; type: functional; details: Homo sapiens
# [12] = HEp-2 cell cytotoxicity, dose response, cytotoxicity control for RSV inhibitor project, HTS (AID 2410); type: functional; details: human respiratory syncytial virus
# [13] = molecular target: T2, Induced myeloid leukemia cell differentiation protein Mcl-1 (Homo sapiens, UniProt Q07820); experiment: MCL1-BIM BH3 interaction inhibitors, dose response, biochemical, fluorescence polarization, BIM-BH3 peptide, 1536-well (AID 2217)
# Bcl-2-like protein 1 = Bcl-2-like protein 1 (Homo sapiens, UniProt Q07817); experiment: BCL-XL inhibitors, dose response, selectivity assay for MCL1 inhibitor project, biochemical, fluorescence polarization, 1536-well (AID 2218)
# [14] = molecular target: T2, Induced myeloid leukemia cell differentiation protein Mcl-1; type: functional
# [15] = molecular target: T3, Carboxy-terminal domain RNA polymerase II polypeptide A small phosphatase 1 (Homo sapiens, UniProt Q9GZU7); experiment: inhibitors of CTDSP1, concentration-response testing, biochemical assay, absorbance-based, actives from ultra-high-throughput screening (AID 540297); type: functional
# T3 sequence (Q9GZU7 whole entry): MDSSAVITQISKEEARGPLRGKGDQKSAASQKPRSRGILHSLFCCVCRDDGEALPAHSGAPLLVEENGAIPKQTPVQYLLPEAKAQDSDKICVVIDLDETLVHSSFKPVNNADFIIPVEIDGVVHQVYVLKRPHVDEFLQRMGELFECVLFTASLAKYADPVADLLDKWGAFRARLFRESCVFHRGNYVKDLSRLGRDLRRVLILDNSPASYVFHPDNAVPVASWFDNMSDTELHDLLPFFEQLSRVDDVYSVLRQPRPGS
# [16] = molecular target: Tyrosine-protein phosphatase non-receptor type 11 (Homo sapiens, UniProt Q06124); experiment: SHP2 phosphatase inhibition, dose response, selectivity assay for STEP inhibitor project, biochemical (AID 602367); type: functional; details: read-out: IC50_Mean
# [17] = molecular target: Bifunctional protein GlmU (Mycobacterium tuberculosis, UniProt P9WMN3); experiment: Inhibitors of Mycobacterial Glucosamine-1-phosphate acetyl transferase (GlmU). Secondary screen.; set-up: species or system Mycobacterium tuberculosis H37Rv
# Protein Tat = Protein Tat (Human immunodeficiency virus type 1 group M subtype B (isolate HXB2)(HIV-1), UniProt P04608); type: functional;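 note: tat binding to TAR RNA read out by fluorescence polarization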
# [18] = molecular target: Dual specificity protein phosphatase 3 (Homo sapiens, UniProt P51452); experiment: VHR phosphatase inhibition, dose response, selectivity assay for STEP inhibitor project, biochemical (AID 602374); type: functional; details: read-out: IC50_Mean
# [19] = molecular target: Tyrosine-protein phosphatase non-receptor type 5 (Homo sapiens, UniProt P54829); experiment: STEP phosphatase inhibitors, confirmation, biochemical, fluorescence intensity, uHTS hits (AID 602372); type: functional; details: read-out: IC50_Mean
# [20] = molecular target: T4, Tyrosine-protein phosphatase non-receptor type 22 (Homo sapiens, UniProt Q9Y2R2); experiment: PTPN22 phosphatase inhibition, dose response, selectivity assay for STEP inhibitor project, biochemical (AID 624241); type: functional
# T4 sequence (Q9Y2R2 whole entry): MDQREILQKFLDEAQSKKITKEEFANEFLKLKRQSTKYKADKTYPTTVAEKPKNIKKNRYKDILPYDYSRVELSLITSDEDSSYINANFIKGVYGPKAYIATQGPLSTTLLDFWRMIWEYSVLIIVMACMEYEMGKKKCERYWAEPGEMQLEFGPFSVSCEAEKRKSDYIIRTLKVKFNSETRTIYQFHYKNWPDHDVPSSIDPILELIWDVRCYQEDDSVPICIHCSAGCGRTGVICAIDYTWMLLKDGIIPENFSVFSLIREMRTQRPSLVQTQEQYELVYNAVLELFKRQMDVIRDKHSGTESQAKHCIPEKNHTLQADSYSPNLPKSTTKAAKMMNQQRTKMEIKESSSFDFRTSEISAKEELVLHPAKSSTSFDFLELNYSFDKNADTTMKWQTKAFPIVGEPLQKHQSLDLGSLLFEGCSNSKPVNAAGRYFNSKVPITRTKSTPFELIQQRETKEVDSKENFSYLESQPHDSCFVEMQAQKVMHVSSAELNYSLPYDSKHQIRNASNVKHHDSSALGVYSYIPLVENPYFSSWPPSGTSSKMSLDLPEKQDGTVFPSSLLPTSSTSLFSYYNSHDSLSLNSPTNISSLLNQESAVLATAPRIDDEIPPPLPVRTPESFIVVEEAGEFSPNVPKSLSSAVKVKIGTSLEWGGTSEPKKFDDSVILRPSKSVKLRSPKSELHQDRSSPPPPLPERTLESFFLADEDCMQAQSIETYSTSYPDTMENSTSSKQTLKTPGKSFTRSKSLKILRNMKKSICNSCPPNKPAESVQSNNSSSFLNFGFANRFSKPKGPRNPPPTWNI
# Cytochrome P450 2C19 = Cytochrome P450 2C19 (Homo sapiens, UniProt P33261); experiment: qHTS Assay for Inhibitors and Substrates of Cytochrome P450 2C19. [Related pubchem assays: 410 ]; type: ADME; details: read-out: Potency
# Cytochrome P450 2C9 = Cytochrome P450 2C9 (Homo sapiens, UniProt P11712); details: Potency
# [21] = molecular target: T5, Tyrosine-protein phosphatase non-receptor type 7 (Homo sapiens, UniProt P35236); experiment: inhibitors of human HePTP phosphatase, […], biochemical, absorbance, leukemia target (AID 521); type: functional
# T5 sequence (P35236 whole entry): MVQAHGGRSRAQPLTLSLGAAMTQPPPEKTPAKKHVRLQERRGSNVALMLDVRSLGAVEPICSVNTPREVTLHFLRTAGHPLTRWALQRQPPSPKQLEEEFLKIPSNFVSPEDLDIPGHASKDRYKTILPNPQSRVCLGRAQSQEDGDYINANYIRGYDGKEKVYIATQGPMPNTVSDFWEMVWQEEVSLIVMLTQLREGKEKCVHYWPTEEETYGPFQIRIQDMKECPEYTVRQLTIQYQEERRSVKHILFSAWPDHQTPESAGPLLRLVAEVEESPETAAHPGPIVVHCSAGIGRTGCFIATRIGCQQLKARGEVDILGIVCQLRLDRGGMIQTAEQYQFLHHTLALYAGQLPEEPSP
# NADPH oxidase 1 [22] = molecular target: T6, NADPH oxidase 1 (Homo sapiens, UniProt Q9Y5S8); experiment: Late-stage luminescence-based cell-based dose response assay to identify inhibitors of NADPH oxidase 1 (NOX1): Synthesized analogs 2.; type: functional
# [23] = molecular target: Mitogen-activated protein kinase 10 (Homo sapiens, UniProt P53779); experiment: Dose response biochemical screening assay for inhibitors of c-Jun N-Terminal Kinase 3 (JNK3). [Related pubchem assays: 746 ]
# Genome polyprotein = Genome polyprotein (Hepatitis C virus, UniProt Q2Q167); experiment: HCV core protein dimerization inhibitors, dose response, biochemical, TR-FRET (AID 2159); set-up: species or system Hepacivirus hominis;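 note: blocks dimerization of HCV core protein measured by TR-FRET between tagged core106 pairs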
# [24] = THP-1 cell cytotoxicity, dose response, cytotoxicity control for Vif-APOBEC3G degradation inhibitor project, THP-1 cells (AID 1117359); type: functional; details: Human immunodeficiency virus 1, THP-1
# NADPH oxidase 1 [25] = molecular target: T6, NADPH oxidase 1; type: functional, cell-based
# Bcl-2-related protein A1 [26] = molecular target: T7, Bcl-2-related protein A1 (Mus musculus, UniProt Q07440); experiment: Bfl-1 inhibitors blocking BH3 peptide binding, confirmation, biochemical, TR-FRET, mouse Bfl-1 (AID 621);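 note: TR-FRET binding of GST-Bfl-1 to FITC-labelled Bid peptide via terbium antibody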
# T7 sequence (Q07440 whole entry): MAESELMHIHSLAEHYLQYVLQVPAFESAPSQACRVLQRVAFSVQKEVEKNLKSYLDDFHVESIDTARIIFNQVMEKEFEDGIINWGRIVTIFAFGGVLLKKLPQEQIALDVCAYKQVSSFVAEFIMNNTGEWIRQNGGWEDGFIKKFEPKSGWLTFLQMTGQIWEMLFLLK
# [27] = molecular target: Glyceraldehyde-3-phosphate dehydrogenase (Homo sapiens, UniProt P04406)
# Bcl-2-related protein A1 [28] = molecular target: T7, Bcl-2-related protein A1; experiment: Bfl-1 binding inhibitors, SAR follow-up, biochemical, fluorescence polarization (AID 1070)
# T2 sequence (Q07820 whole entry): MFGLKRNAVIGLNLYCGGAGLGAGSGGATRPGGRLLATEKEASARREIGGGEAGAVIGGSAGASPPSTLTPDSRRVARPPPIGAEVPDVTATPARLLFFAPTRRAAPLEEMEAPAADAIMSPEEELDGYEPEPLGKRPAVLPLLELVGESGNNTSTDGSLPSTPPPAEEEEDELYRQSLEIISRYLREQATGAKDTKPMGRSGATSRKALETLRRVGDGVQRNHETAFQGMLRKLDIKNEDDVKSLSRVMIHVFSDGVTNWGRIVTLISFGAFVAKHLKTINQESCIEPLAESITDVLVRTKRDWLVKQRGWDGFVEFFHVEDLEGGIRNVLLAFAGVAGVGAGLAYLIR
# T6 sequence (Q9Y5S8 whole entry): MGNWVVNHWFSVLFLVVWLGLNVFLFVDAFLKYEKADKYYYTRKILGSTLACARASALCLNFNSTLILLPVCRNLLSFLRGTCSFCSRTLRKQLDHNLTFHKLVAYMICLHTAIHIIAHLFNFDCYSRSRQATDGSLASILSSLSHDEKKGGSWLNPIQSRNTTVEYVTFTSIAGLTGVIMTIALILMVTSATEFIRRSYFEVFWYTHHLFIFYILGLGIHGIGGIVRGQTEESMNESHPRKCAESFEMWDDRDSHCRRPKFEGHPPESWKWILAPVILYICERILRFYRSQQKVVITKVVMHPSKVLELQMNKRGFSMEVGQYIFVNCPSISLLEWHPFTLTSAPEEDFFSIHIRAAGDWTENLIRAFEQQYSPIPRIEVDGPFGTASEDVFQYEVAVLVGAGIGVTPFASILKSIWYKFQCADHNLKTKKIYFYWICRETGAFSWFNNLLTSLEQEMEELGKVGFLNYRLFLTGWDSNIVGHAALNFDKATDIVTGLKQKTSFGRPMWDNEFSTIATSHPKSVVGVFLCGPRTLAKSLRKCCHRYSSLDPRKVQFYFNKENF
# Chain of Bifunctional protein GlmU (P9WMN3 whole entry): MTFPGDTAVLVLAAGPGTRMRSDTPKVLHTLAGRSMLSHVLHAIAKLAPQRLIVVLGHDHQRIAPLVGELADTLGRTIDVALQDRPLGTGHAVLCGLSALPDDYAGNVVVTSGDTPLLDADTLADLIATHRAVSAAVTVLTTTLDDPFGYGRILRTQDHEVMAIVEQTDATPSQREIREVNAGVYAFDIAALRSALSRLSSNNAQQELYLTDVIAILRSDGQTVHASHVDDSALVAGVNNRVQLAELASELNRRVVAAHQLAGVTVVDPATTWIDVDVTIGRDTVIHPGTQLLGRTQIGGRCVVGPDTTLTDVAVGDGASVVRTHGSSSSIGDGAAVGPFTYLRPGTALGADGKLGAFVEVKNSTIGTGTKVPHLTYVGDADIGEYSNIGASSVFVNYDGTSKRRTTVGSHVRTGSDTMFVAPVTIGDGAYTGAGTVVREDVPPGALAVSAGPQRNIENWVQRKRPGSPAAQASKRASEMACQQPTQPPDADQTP
# Chain of Tyrosine-protein phosphatase non-receptor type 11 (Q06124 whole entry): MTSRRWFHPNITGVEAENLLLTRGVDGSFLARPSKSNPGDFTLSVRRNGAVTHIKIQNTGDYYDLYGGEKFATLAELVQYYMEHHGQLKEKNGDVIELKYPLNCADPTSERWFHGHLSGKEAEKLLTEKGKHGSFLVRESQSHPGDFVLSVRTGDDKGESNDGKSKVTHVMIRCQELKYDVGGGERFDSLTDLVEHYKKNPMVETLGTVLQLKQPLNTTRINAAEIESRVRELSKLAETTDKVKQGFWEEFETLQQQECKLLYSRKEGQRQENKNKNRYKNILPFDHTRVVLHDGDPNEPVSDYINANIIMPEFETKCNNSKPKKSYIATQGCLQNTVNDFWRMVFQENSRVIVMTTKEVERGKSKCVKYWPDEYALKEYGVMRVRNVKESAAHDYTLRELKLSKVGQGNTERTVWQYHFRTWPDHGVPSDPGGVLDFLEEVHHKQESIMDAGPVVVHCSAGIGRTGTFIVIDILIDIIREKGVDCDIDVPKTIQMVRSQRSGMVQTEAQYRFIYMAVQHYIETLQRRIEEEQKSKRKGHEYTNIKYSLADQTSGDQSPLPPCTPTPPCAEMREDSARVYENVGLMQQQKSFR
# Chain of Sphingosine 1-phosphate receptor 2 (O95136 whole entry): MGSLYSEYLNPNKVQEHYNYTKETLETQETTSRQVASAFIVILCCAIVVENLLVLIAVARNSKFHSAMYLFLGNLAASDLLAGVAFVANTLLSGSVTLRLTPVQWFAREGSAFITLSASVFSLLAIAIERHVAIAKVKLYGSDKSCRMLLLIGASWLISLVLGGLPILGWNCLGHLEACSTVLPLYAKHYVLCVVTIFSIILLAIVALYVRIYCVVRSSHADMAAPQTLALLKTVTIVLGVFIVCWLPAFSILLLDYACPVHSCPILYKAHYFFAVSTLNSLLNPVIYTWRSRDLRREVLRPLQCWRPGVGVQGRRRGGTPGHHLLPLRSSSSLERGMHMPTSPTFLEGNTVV
# Chain of Genome polyprotein (Q2Q167 whole entry): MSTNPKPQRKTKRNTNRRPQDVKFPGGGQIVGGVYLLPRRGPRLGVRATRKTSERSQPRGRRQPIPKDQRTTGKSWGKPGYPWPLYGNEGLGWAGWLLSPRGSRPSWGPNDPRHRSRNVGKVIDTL
# Chain of Aryl hydrocarbon receptor (P35869 whole entry): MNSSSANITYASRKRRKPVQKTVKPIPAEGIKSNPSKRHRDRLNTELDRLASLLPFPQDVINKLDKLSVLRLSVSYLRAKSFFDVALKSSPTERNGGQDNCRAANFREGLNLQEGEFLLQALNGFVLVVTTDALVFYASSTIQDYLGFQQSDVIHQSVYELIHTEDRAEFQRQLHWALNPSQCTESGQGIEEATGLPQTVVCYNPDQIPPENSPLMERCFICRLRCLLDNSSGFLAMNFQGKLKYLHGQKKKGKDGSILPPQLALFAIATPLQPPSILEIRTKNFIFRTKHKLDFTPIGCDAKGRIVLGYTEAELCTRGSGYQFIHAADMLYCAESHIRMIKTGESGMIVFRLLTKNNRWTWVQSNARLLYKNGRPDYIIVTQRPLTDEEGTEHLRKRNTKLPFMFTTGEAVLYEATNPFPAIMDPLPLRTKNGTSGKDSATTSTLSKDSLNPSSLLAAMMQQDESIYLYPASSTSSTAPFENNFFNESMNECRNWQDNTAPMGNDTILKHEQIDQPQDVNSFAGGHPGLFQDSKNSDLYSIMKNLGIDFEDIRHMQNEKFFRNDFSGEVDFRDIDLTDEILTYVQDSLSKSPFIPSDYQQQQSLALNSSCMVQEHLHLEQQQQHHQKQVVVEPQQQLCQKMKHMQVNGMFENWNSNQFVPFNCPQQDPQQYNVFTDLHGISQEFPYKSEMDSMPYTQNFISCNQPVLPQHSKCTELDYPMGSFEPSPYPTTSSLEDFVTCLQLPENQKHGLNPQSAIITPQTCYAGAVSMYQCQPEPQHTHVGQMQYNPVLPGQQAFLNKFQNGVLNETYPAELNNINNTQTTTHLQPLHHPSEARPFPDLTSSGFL
# Chain of Tyrosine-protein phosphatase non-receptor type 5 (P54829 whole entry): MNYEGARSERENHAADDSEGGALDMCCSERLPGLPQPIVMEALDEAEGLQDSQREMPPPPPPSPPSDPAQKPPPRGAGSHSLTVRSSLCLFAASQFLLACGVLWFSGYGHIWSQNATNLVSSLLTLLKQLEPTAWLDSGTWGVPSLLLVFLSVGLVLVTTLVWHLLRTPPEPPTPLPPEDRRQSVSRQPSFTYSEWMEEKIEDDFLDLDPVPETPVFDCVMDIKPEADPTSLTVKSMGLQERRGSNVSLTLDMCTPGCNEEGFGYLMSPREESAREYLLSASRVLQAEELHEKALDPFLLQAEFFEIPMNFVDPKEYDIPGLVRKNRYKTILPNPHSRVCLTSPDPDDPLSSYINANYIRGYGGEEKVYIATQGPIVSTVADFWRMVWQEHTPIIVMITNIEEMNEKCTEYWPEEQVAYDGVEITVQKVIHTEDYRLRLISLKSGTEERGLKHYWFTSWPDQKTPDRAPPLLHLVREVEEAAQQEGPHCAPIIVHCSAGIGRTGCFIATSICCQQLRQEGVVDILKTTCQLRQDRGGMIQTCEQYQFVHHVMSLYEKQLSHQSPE
# Chain of Oxytocin receptor (P30559 whole entry): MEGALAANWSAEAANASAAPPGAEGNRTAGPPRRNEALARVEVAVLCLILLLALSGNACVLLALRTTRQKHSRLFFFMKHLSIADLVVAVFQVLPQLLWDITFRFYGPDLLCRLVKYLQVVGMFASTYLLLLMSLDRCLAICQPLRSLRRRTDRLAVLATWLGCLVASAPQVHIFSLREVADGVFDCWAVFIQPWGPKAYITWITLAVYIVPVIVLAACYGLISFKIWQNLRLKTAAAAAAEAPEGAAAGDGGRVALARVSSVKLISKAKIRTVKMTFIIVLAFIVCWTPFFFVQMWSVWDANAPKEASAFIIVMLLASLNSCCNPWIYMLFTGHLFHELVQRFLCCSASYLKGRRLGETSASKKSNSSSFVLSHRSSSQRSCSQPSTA
# Chain of Mitogen-activated protein kinase 10 (P53779 whole entry): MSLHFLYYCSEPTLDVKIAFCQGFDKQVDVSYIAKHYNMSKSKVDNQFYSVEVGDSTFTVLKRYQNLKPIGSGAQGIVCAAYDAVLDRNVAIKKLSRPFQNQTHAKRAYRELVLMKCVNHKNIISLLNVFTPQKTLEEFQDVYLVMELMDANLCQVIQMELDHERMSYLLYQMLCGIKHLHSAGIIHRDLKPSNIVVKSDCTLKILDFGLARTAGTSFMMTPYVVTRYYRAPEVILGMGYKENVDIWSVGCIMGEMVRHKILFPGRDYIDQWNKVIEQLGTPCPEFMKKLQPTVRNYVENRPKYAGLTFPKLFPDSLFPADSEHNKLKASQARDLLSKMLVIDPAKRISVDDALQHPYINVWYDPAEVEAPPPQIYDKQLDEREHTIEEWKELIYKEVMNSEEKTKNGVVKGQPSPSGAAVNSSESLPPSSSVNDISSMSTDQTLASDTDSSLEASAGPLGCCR
# Chain of Dual specificity protein phosphatase 3 (P51452 whole entry): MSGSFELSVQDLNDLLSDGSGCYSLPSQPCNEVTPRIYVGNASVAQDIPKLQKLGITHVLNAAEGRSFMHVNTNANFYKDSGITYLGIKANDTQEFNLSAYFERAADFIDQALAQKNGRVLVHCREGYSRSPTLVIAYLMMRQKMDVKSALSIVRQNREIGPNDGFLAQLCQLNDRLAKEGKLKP
smiles,measurement,setting,value
COc1ccc(-c2nsc(SCC(=O)Nc3ccc4c(c3)OCO4)n2)cc1,EC50,[1],0.19 µM (not active)
O=C(Cn1cnc2ccccc2c1=O)Nc1ccc(S(=O)(=O)N2CCOCC2)cc1,IC50,[2],> 109 µM (inactive)
same,IC50,[3],> 83.3 µM (inactive)
CC1(CCc2ccccc2)N=C(S)N(c2ccc(Cl)cc2)N1 (configuration not stated),IC50,[4],> 100 µM (active)
COc1ccc(CNCc2ccccc2Cl)cc1,IC50,[5],13.3 µM (active)
c1ccc(-c2cc(NCCN3CCOCC3)c3ccccc3n2)cc1,IC50,[6],2.13 µM (active)
same,IC50,[7],3.28 µM (active)
Cc1cc(C)n(-c2cc(C(C)(C)C)nc3c(-c4ccc(Cl)cc4)cnn23)n1,EC50,Oxytocin receptor,> 29.9 µM (not active)
O=c1c2cc([N+](=O)[O-])ccc2nc2n1CCC2,CC50,Vero,> 100 µM (active)
CCNC(=O)CN(CC)CC(=O)c1cc(C)n(Cc2ccccc2)c1C,EC50,[8],> 30 µM (not active)
O=C(O)CCn1c(SCc2cccc3ccccc23)nc2ccccc21,IC50,[9],36 µM (active)
COc1cc2c(cc1NC(=O)Nc1ccc(C)cc1)oc1ccccc12,EC50,[10],1.47 µM (active)
same,AC50,[11],1.88 µM (active)
same,CC50,[12],26.4 µM (active)
O=C(/C=C/c1ccc(Cl)c([N+](=O)[O-])c1)Nc1ccc(N2CCCC2)cc1,IC50,[13],20.9 µM (not active)
same,IC50,Bcl-2-like protein 1,> 109 µM (not active)
same,IC50,[14],> 54 µM (active)
same,IC50,[15],3.29 µM (active)
Cc1c(C)n(C(=O)CSc2nc3ccccc3[nH]2)c2ccccc12,IC50,[16],0.603 µM (active)
same,IC50,[17],38.2 µM (active)
same,IC50,Protein Tat,> 100 µM (active)
same,IC50,[18],1.81 µM (active)
same,IC50,[19],9.91 µM (active)
same,IC50,[20],8.33 µM (active)
same,IC50,[15],3.37 µM (active)
CC1=C(\C=C/C(C)=C/C=C\C(C)=C\C(=O)Nc2ccc(O)cc2)C(C)(C)CCC1,AC50,Cytochrome P450 2C19,31.6 µM (inconclusive)
same,AC50,Cytochrome P450 2C9,7.94 µM (inconclusive)
Brc1ccc(-c2nnc3sc(CNC4CCCC4)cn23)cc1,IC50,[21],> 100 µM (not active)
ClCCN1c2ccccc2Sc2ccc(Cl)cc21,IC50,NADPH oxidase 1 [22],> 50 µM (not active)
COc1cccc(C2=NOC(C(=O)Nc3cc(OC)c(OC)c(OC)c3)C2)c1 (configuration not stated),IC50,[23],2.02 µM (active)
CN(CC(=O)Nc1cccc(F)c1)C(=O)c1cccc(-n2cccc2)c1,IC50,Genome polyprotein,> 49.8 µM (not active)
same,CC50,[24],> 40 µM (active)
same,IC50,[15],6.19 µM (active)
COc1ccc(NC(=O)Nc2ccc3c(c2)CCN3C(C)=O)cc1,IC50,NADPH oxidase 1 [25],> 17 µM (not active)
CN1CCN(C2=CC(=O)N(c3ccc(Cl)cc3)C2=O)CC1,IC50,Bcl-2-related protein A1 [26],> 100 µM (not active)
same,IC50,[27],> 100 µM (not active)
same,IC50,Bcl-2-related protein A1 [28],> 100 µM (not active)
